Entries after “also recorded” stand apart in the source; their conditions may differ. Where two headings read alike, the source gives them in different places.

For one series, the system named is ZFP91 promoter. Nature of the series: ZFP91 promoter luciferase reporter assay (pGL3-ZFP91prom-LUC). In kind it is cell-based, human. In general terms: A reporter such as luciferase makes a cellular process visible.
Series [1] has as its system ZFP91. Nature of the series: ZFP91 expression in MCF-7 treated with NF-κB activators. Type of series: cell-based, human. As to conditions: TNF-α 20 ng/ml, PMA 20 ng/ml, IL1-β 20 ng/ml, H2O2 1 mM, 0, 3, 6, 14, 24 hours. The protocol:
To examine whether ZFP91 expression was regulated by NF-κB, the breast cancer cell line MCF-7 was treated with the NF-κB activators, TNF-α (20 ng/ml), PMA (20 ng/ml), IL1-β (20 ng/ml) and H2O2 (1 mM) for 0, 3, 6, 14, and 24 hours. After 0, 3, 6, 14, and 24 hours from the treatment, poly(A)^+ RNA was extracted, followed by Northern blotting. The probe used for Northern blotting was prepared as follows; TOPO cloning vector inserted with ZFP91 was digested with EcoRI and the insert alone was used after random prime labeling with [α-^32P]dCTP. ZFP91 expressions over the time were investigated. […] The NF-κB activators p65, IKKα, IKKβ, and NIK were expressed in MCF-7 cells. 48 hours later, ZFP91 expressions in the cells were investigated.

Series [2] relates to ZFP91. Nature of the series: TNF-α mediated ZFP91 expression in FLAG-ZFP91 expressing AGS cells, Western blotting. The note with it: pre-treatment 30 minutes with KA 1, 10 ug/ml, celastrol 0.2, 2 ug/ml, parthenolide 0.5, 5 ug/ml, TNF-α 50 ng/ml 3 hours.
Description: TNF-α (50 ng/ml) was treated thereto for 3 hours. Then, cell lysate was obtained, followed by Western blot analysis using a mouse anti-FLAG antibody.
FLAG-ZFP91 expressing AGS cells were pre-treated with the NF-κB inhibitors, kamebakaurin (KA), celastrol (Cel), parthenolide (PTN), for 30 minutes. TNF-α mediated ZFP91 expression was investigated by Western blotting using anti-ZFP91 antibody.
A further series relates to HIF-1α. Nature of the series: HIF-1α expression induced under 1% oxygen in AGS cells expressing ZFP91. As to conditions: AGS cells expressing ZFP91, 1% oxygen.
Series [3] has as its system MDA-MB-435. Nature of the series: MDA-MB-435 xenograft metastasis to the lung in nude mice. In kind it is in vivo. As to conditions: for Frequency (metastatic mice/total mice) / Minimum metastasis number-maximum metastasis number / number of metastasis in lung (median value) / Mean number of metastasis in lung: 35 days after transplantation; for Mean number of metastasis in lung: colonies >diameter 2 mm. The procedure: (§1) The human breast cancer cell line MDA-MB-435 was transplanted in the glandular fatty tissues of nude mice (Charles River Laboratory, Wilmington, Mass., USA) at 5 weeks (1×10^6 cells/mouse). 12 days later, the nude mice having tumor were grouped by 8. Kamebakaurin dissolved in 0.5% Tween 80 was administered into the abdominal cavity every other day at the concentrations of 1.5 and 15 mg/kg 12 times in total. The tumor size was measured for 23 days after the transplantation. The tumor size was calculated by “width 2 (square)×[…]/2=tumor volume (mm^3)”.
After 35 days from the transplantation, the lung of the mouse was excised and washed with water and fixed in Bouin's solution (SIGMA). The colonies metastasized to the surface of the lung (>diameter 2 mm) were counted under microscope and the mean values are shown in Table 2.

Series [4] concerns MDA-MB-435. The experiment in a line: MDA-MB-435 xenograft tumor growth in nude mice. Type of series: in vivo. The note with it: 15 mg/kg into the abdominal cavity every other day, 12 times. The procedure:
as §1

Series [5] has as its system PTPN11, SPIN, ECT2, EWSR1, MLLT4, MAGEA4, TNFAIP3 and ZFP91. The experiment in a line: RT-PCR of candidate genes regulated by kamebakaurin. In kind it is cell-based, human. The note with it: kamebakaurin 10 μg/ml, 5 hours, MDA-MB-231 cells. The protocol:
A human breast cancer cell line MDA-MB-231 cells was treated with DMSO and kamebakaurin (10 μg/ml) respectively, followed by culture for 5 hours. The cells were washed with cold PBS three times, and then total RNA was extracted by using RNeasy Mini kits (Qiagen, Santa Clarita, Calif., USA) 5 μg of the total RNA was used for the synthesis of cDNA using Invitrogen kit Access RT-PCR Kit (Promega, Madison, Wis., U.S.A.). The ZFP91 specific primer was constructed based on the nucleotide sequence of Genebank (Accession No. NM-053023). Each candidate gene specific primer was constructed based on the informed nucleotide sequences (Table 1). PCR was performed with prepared cDNA as follows: predenaturation at 95° C. for 5 minutes, denaturation at 94° C. for 1 minute, annealing at 50° C.-60° C. for 2 minutes, polymerization at 70° C. for 1 minute, 30 cycles from denaturation to polymerization. The gene-specific PCR products proceeded to electrophoresis on 1% agarose gel, followed by EtBr staining (FIG. 1).

The test system of series [6] is MAGEA4, TNFAIP3 and ZFP91. Nature of the series: Northern blotting of candidate genes regulated by kamebakaurin. Type of series: cell-based, human. The note with it: kamebakaurin 10 μg/ml, 5 hours, MDA-MB-231 cells. The procedure:
MDA-MB-231 cells were treated with DMSO and kamebakaurin (10 μg/ml), followed by culture for 5 hours. The cells were washed with cold PBS three times, and poly(A)^+ RNA was extracted by using FastTrack 2.0 kit (Invitrogen). 2 μg of the extracted poly (A)^+ RNA was eletrohporesed on 1% agarose-formaldehyde gel, which was transferred onto a nylon membrane (Roche, Mannheim, Germany). To investigate the expressions of selected candidate genes, the PCR product was purified by using Wizard PCR PrepsDNA Purification Systems (Promega Corporation, Madison, Wis., U.S.A.) and then used as a probe. Each probe was labeled with [α-^32P]dCTP using Rediprime™ II random prime labeling system (Amersham Biosciences). Non-incorporated ^32P was removed by using spin column (ProbeQuant™ G-50 Micro Columns; Amersham Biosciences). The prepared cDNA was used as a probe for hybridization with the membrane. After the hybridization, the membrane was washed with 2×SSC/0.1% SDS, which was exposed on X-ray film at −80° C. with intensifying screen.

Series [7] relates to ZFP91. Nature of the series: ZFP91 expression after ZFP91 siRNA, Western blotting. In kind it is cell-based, human. As to conditions: various cancer cells. The text has this: To investigate the effect of ZFP91 on HIF-1 activation, a human stomach cancer cell line, AGS cells and AGS cells transformed with ZFP91 were transfected with HRE dependent reporter plasmid. ZFP91 siRNA oligomers (SEQ. ID. NO: 1-NO: 4; siRNA sequences corresponding to amino terminal region ccaggtg gcattagtag tgaa, sense: r(AGG UGG CAU UAG UAG UGA A)dTdT, antisense: r(UUC ACU ACU AAU GCC ACC U)dGdG; produced by GIAGEN) were introduced into the above cell lines by using RANiFect Transfection reagent (QIAGEN, Germany).
Particularly, After 24 hours incubation of 1×10^5 cells/well distributed in a 24-well plate. siRNA oligomer (3.8 ul of SIRNA oligomer: 1 ug) was introduced into the cells with 96.2 ul of medium or EC-R buffer and 6 ul of RNAiFect reagent (Quiagen) and then the plate was kept at room temperature for 10-15 minutes. During the incubation, the medium of 24-well plate was replaced with 300 μl of fresh medium and the mixture of siRNA oligomer and RNAiFect reagent was slowly added and carefully mixed. The reaction mixture was incubated for 24 hours under normoxic condition, and then further cultured for another 24 hours in an incubator in the presence of 1% oxygen. Some of extracts of the cells proceeded to luciferase assay and HIF-1 induced luciferase activity was measured. […]
A general note: A western blot detects proteins with antibodies after separation by electrophoresis.

The mark [8] stands for this setting: ZFP91 promoter containing both KB1 and KB2.

Consider `[Cl-].[Cl-].[Co+2]` [CoCl2], for which, in the series with ZFP91 promoter, the ZFP91 promoter activity result is listed as “significantly increased”.
Take `OO` [H2O2]: the ZFP91 promoter activity result in the series on ZFP91 promoter (stomach cancer cell line transfected with pGL3-ZFP91prom-LUC) is on record as “significantly increased”. Also, in the series with ZFP91 [1], the “ZFP91 at mRNA level” value was “not much increased” and the “ZFP91 at protein level” value was “significantly increased time-dependently”.
With `CCCCCCCCCCCCCC(=O)O[C@@H]1[C@@H](C)[C@@]2(O)[C@@H](C=C(CO)C[C@]3(O)C(=O)C(C)=C[C@@H]23)[C@@H]2C(C)(C)[C@]12OC(C)=O` [PMA], in the series with ZFP91 promoter (setting [8]), the ZFP91 promoter activity entry is “induced”. Also, in the series on ZFP91 [1], the “ZFP91 at mRNA level” value is “not much increased” and the “ZFP91 at protein level” value is given as “significantly increased time-dependently”.
In the case of `C=C1C(=O)[C@@]23[C@H](O)C[C@@H]4C(C)(C)CC[C@H](O)[C@@]4(CO)[C@@H]2CC[C@@H]1[C@H]3O` [kamebakaurin, Kamebakaurin], in the series on ZFP91 [2], the “TNF-α mediated ZFP91 expression” value is recorded as “suppressed; also recorded: inhibited”. The “HIF-1α expression / accumulation” value in the series with HIF-1α is given as “suppressed; also recorded: inhibited; also recorded: significantly reduced”. Moreover, in the series with MDA-MB-435 [3] (1.5 mg/kg), the “Frequency (metastatic mice/total mice)” value is on record as 6/8, the “Minimum metastasis number-maximum metastasis number” value is reported as “(0-6)”, the “number of metastasis in lung (median value)” value is 3 and the “Mean number of metastasis in lung” value came out at 3.3. In addition, in the series on MDA-MB-435 [3] (15 mg/kg), the “Frequency (metastatic mice/total mice)” value was 6/8, the “Minimum metastasis number-maximum metastasis number” value is given as “(0-4)”, the “number of metastasis in lung (median value)” value is given as 2 and the “Mean number of metastasis in lung” value was determined as 1.8. The “metastasis to the lung” value in the series with MDA-MB-435 [3] (15 mg/kg, nude mice, MDA-MB-435) is listed as “significantly inhibited”. Also, the tumor growth result with MDA-MB-435 [4] is reported as “significantly inhibited”. Further, in [5], the “expression of PTPN11, SPIN, ECT2, EWSR1, MLLT4, MAGEA4, TNFAIP3 and ZFP91 (RT-PCR)” value is “down-regulated by at least two times”. In addition, in [6], the “expression levels of MAGEA4, TNFAIP3 and ZFP91 (Northern blotting) vs KA-non-treated control” value is given as “significantly different”.
With “IL-1β: pro-inflammatory cytokine, NF-κB activator”, the ZFP91 promoter activity entry in the series on ZFP91 promoter (setting [8]) was “induced”. For the same compound, in the series with ZFP91 [1], the “ZFP91 at mRNA level” value is recorded as “not much increased” and the “ZFP91 at protein level” value was “significantly increased time-dependently”.
For TNF-α, in that order: “induced”, “not much increased” and “significantly increased time-dependently”.
On to “ZFP91 siRNA 1: siRNA corresponding to the nucleotide sequence 710-730 (NCBI, NM-053023) of ZFP91, SEQ. ID. NO: 1 and NO: 2 (chain 1 GGCAUUAGUAGUGAA; chain 2 UUCACUACUAAUGCCACCU; listed as RNA, chemistry not fully specified)”, for which the ZFP91 expression entry with ZFP91 [7] is listed as “Suppression”.
Consider “ZFP91 siRNA 2: siRNA corresponding to nucleotides 2261-2279 of 3′ untranslated region of ZFP91, SEQ. ID. NO: 3 and NO: 4 (chain 1 GCGGCACACUUAUCUUCAA; chain 2 UUGAAGAUAAGUGUGCCGC; listed as RNA, chemistry not given here)”, for which the ZFP91 expression result in the series with ZFP91 [7] is given as “Suppression”.

(Values after patent publication US20080248024A1, “THERAPEUTIC AGENT FOR CANCER, INFLAMMATION, AND AUTO-IMMUNE DISEASE CONTAINING INHIBITOR OF ZINC FINGER PROTEIN 91” (Korea Research Institute of Bioscience and Biotechnology, priority 2007, published 2008).)
